From patent US6218406A, “Farnesyl transferase inhibitors, their preparation, the pharmaceutical compositions which contain them and their use in the preparation of medicaments” (Aventis Pharma S.A., priority 1996, dated 2001)

The molecules below were run on HCT116 human colic carcinoma line (assay: In vivo antitumour test, human carcinoma grafted subcutaneously into mice). Conditions: 400 mg/kg/adm., orally.
Experimental: The influence of the compounds according to the invention, administered to mice, on the growth of carcinomas of human origin grafted subcutaneously into these mice was studied.
On day 0 of the experiment, the mice received a tumour fragment (30-60 mg) bilaterally under the skin using a trocar. The bilateral implantation of the tumours ensured a more uniform tumour weight per mouse and thus made it possible to reduce the number of animals per group. The mice were then divided into the different treated and untreated groups.
The product was suspended in an aqueous solution at concentrations that ranged from […], corresponding to doses of 0.1 to 10,000 mg/kg.
The treatments or their possible excipient were administered every day orally, at a maximum volume of 0.2 ml, the duration of administration depending on the doubling time of the tumour.
The tumours were measured 2 to 3 times per week, using a calliper rule, according to two measurements in mm, which were subsequently converted into tumour weight according to the following formula:
tumour weight (mg)=Length (mm)×width^2 (mm^2)/2
An active product was a product which made it possible to limit the growth of the tumour after it had been administered.
C=C(C(=O)N1C[C@H]2[C@@]3(c4ccc(C)cc4)CC[C@H](c4ccccc43)[C@@]2(C(=O)O)C1)c1ccccc1OC (single isomer, unassigned) [Example 3, dextrorotatory enantiomer of (3aRS,4SR,9RS,9aRS)-4,9-ethano-2-[2-(2-methoxyphenyl)propenoyl]-9-(4-methylphenyl)-2,3,3a,4,9,9a-hexahydro-1H-benzo[f]isoindole-3a-carboxylic acid] was tested, and the Tumour stabilization was “Tumour stabilization”.

The molecules below were run against farnesyl transferase (Homo sapiens, UniProt P49354+P49356) (assay: Farnesyl transferase inhibition, [3H]-farnesylation of biotinylated K-ras C-terminal peptide (SPA assay)). Conditions: K-Ras substrate; 60 min at 37° C.; mean of two IC50 values; read-out: In vitro inhibitory activity (K-Ras) IC50.
Format: biochemical
C=C(C(=O)N1C[C@H]2[C@@]3(c4ccc(C)cc4)CC[C@H](c4ccccc43)[C@@]2(C(=O)O)C1)c1ccccc1OC (single isomer, unassigned) [Example 3, dextrorotatory enantiomer of (3aRS,4SR,9RS,9aRS)-4,9-ethano-2-[2-(2-methoxyphenyl)propenoyl]-9-(4-methylphenyl)-2,3,3a,4,9,9a-hexahydro-1H-benzo[f]isoindole-3a-carboxylic acid] gave an IC50 of 28 nM. C=C(C(=O)N1C[C@@H]2[C@]3(c4ccc(C(F)(F)F)cc4)CC[C@@H](c4ccccc43)[C@]2(C(=O)O)C1)c1ccccc1OC (single isomer, unassigned) [Example 41, dextrorotatory enantiomer of (3aRS,4SR,9SR,9aRS)-4,9-ethano-2-[2-(2-methoxyphenyl)propenoyl]-9-[4-(trifluoromethyl)phenyl]-2,3,3a,4,9,9a-hexahydro-1H-benzo[f]isoindole-3a-carboxylic Acid] was tested, and the IC50 was 9 nM. Molecule C=C(C(=O)N1C[C@H]2[C@@]3(c4ccc(OC)cc4)CC[C@H](c4ccccc43)[C@@]2(C(=O)O)C1)c1ccccc1OC (single isomer, unassigned) [Example 75, Dextrorotatory Enantiomer of (3aRS,4SR,9SR,9aRS)-4,9-ethano-9-(4-methoxyphenyl)-2-[2-(2-methoxyphenyl)propenoyl]-2,3,3a,4,9,9a-hexahydro-1H-benzo[f]isoindole-3a-carboxylic Acid] has an IC50 of 8 nM. Molecule C=C(C(=O)N1C[C@H]2[C@@]3(c4ccc(C)cc4)CC[C@H](c4c(OC)cccc43)[C@@]2(C(=O)O)C1)c1ccccc1OC (single isomer, unassigned) [Example 100, Dextrorotatory Enantiomer of (3aRS,4SR,9SR,9aRS)-4,9-ethano-5-methoxy-2-[2-(2-methoxyphenyl)propenoyl]-9-(4-methylphenyl)-2,3,3a,4,9,9a-hexahydro-1H-benzo[f]isoindole-3a-carboxylic Acid] has an IC50 of less than 19 nM. Molecule C=C(C(=O)N1CC2C3(c4ccc(OC)cc4)CCC(c4ccccc43)C2(C(=O)NC(C(=O)O)c2ccccc2)C1)c1ccccc1OC (stereo not drawn) [Example 81, (RS)- and (SR)-2-{(3aRS,4SR,9SR,9aRS)-4,9-ethano-9-(4-methoxyphenyl)-2-[2-(2-methoxyphenyl)propenoyl]-2,3,3a,4,9,9a-hexahydro-1H-benzo[f]isoindole-3a-carbonylamino}phenylacetic Acids] has an IC50 of 18 nM.
